Laboratory results as given in patent US11773088B2, “KCNT1 inhibitors and methods of use” (Praxis Precision Medicines, Inc., priority 2020, dated 2023).

Biological target: T1, KCNT1 (KNa1.1, Slack) (Homo sapiens, UniProt Q5JUK3)
T1 construct: expressed in transfected cells; host or cells: HEK-TREX (tetracycline-inducible HEK cell line)
T1 sequence (Q5JUK3 1-1230): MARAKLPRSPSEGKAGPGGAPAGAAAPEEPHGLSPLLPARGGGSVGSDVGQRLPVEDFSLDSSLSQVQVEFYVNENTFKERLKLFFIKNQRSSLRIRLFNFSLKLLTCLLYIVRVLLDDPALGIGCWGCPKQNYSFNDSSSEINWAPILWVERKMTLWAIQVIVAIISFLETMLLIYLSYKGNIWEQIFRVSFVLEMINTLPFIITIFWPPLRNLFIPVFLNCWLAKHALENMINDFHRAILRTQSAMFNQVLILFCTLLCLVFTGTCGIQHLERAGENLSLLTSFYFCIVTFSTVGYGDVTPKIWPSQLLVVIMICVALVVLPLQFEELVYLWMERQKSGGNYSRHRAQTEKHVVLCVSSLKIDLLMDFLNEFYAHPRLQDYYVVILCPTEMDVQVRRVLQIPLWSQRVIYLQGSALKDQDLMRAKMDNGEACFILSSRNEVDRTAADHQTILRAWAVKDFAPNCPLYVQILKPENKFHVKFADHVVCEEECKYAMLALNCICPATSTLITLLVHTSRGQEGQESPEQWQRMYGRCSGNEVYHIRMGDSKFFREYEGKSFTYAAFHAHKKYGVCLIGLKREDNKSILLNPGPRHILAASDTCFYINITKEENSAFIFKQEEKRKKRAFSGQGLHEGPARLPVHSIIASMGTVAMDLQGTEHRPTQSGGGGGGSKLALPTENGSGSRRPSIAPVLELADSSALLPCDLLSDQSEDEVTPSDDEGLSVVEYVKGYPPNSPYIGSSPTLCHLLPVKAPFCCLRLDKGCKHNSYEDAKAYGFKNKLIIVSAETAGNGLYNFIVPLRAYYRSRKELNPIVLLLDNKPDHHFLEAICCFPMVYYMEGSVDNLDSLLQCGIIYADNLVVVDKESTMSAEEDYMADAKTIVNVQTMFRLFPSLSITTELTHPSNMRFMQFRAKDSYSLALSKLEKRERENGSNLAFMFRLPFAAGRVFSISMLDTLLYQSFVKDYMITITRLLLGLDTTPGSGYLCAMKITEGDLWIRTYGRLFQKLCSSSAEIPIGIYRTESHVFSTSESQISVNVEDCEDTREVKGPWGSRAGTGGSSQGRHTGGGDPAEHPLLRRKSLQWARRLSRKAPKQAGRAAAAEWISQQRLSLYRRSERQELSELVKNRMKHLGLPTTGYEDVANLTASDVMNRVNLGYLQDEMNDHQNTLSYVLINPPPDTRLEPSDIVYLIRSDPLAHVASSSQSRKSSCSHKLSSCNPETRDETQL
Test: KCNT1 patch clamp assay (SyncroPatch 384PE, HEK-TREX inducible cell line)
Assay type: cell-based
Details: wild-type KCNT1, HEK-TREX cells, automated perforated patch clamp, step to 0 mV, room temperature; read-out: KCNT1-WT IC50
Protocol: Inhibition of KCNT1 (KNa1.1, Slack) was evaluated using a tetracycline inducible cell line (HEK-TREX). Currents were recorded using the SyncroPatch 384PE automated, patch clamp system. Pulse generation and data collection were performed with PatchController384 V1.3.0 and DataController384 V1.2.1 (Nanion Technologies). The access resistance and apparent membrane capacitance were estimated using built-in protocols. Current were recorded in perforated patch mode (10 μM escin) from a population of cells. The cells were lifted, triturated, and resuspended at 800,000 cells/ml. The cells were allowed to recover in the cell hotel prior to experimentation. Currents were recorded at room temperature. The external solution contained the following (in mM): NaCl 105, NMDG 40, KCl 4, MgCl2 1, CaCl2) 5 and HEPES 10 (pH=7.4, Osmolarity ˜300 mOsm). The extracellular solution was used as the wash, reference and compound delivery solution. The internal solution contained the following (in mM): NaCl 70, KF 70, KCl 10, EGTA 5, HEPES 5 and Escin 0.01 (pH=7.2, Osmolarity ˜295 mOsm). Escin is made at a 5 mM stock in water, aliquoted, and stored at −20° C. The compound plate was created at 2× concentrated in the extracellular solution. The compound was diluted to 1:2 when added to the recording well. The amount of DMSO in the extracellular solution was held constant at the level used for the highest tested concentration. A holding potential of −80 mV with a 100 ms step to 0 mV was used. Mean current was measured during the step to 0 mV. […] The average mean current from 3 sweeps was calculated and the % inhibition of each compound was calculated. The % Inhibition as a function of the compound concentration was fit with a Hill equation to derive IC50, slope, min and max parameters. If KCNT1 inhibition was less than 50% at the highest tested concentration or if an IC50 could not be calculated, then a percent inhibition was reported in place of the IC50.
In this table, “A” indicates IC50 of less than or equal to 1 μM; “B” indicates inhibition of between 1 μM to 20 μM; and “C” indicates inhibition of greater than or equal to 20 μM.

IC50 | SMILES
≤ 1000 nM | CC(C)c1cc(C(=O)N[C@@H](C)c2nc(-c3ccnc(C4CC4)c3)no2)n(C)n1 [Compound 1, (S)—N-(1-(3-(2-cyclopropylpyridin-4-yl)-1,2,4-oxadiazol-5-yl)ethyl)-3-isopropyl-1-methyl-1H-pyrazole-5-carboxamide]
≤ 1000 nM | CC(C)n1nccc1C(=O)N[C@@H](C)c1nc(-c2ccnc(C3CC3)c2)no1 [Compound 2, (S)—N-(1-(3-(2-cyclopropylpyridin-4-yl)-1,2,4-oxadiazol-5-yl)ethyl)-1-isopropyl-1H-pyrazole-5-carboxamide]
≤ 1000 nM | C[C@H](NC(=O)c1cc(C2CC2)nn1C)c1nc(-c2ccnc(C3CC3)c2)no1 [Compound 3, (S)-3-cyclopropyl-N-(1-(3-(2-cyclopropylpyridin-4-yl)-1,2,4-oxadiazol-5-yl)ethyl)-1-methyl-1H-pyrazole-5-carboxamide]
≤ 1000 nM | C[C@H](NC(=O)c1cc(C(C)(C)C)nn1C)c1nc(-c2ccnc(C3CC3)c2)no1 [Compound 4, (S)-3-(tert-butyl)-N-(1-(3-(2-cyclopropylpyridin-4-yl)-1,2,4-oxadiazol-5-yl)ethyl)-1-methyl-1H-pyrazole-5-carboxamide]
≤ 1000 nM | CCn1nccc1C(=O)N[C@@H](C)c1nc(-c2ccnc(C3CC3)c2)no1 [Compound 5, (S)—N-(1-(3-(2-cyclopropylpyridin-4-yl)-1,2,4-oxadiazol-5-yl)ethyl)-1-ethyl-1H-pyrazole-5-carboxamide]
≤ 1000 nM | C[C@H](NC(=O)c1ccnn1C(C)(C)C)c1nc(-c2ccnc(C3CC3)c2)no1 [Compound 6, (S)-1-(tert-butyl)-N-(1-(3-(2-cyclopropylpyridin-4-yl)-1,2,4-oxadiazol-5-yl)ethyl)-1H-pyrazole-5-carboxamide]
1000 to 20000 nM | C[C@H](NC(=O)c1ccnn1C1CCC1)c1nc(-c2ccnc(C3CCC3)c2)no1 [Compound 7, (S)-1-cyclobutyl-N-(1-(3-(2-cyclobutylpyridin-4-yl)-1,2,4-oxadiazol-5-yl)ethyl)-1H-pyrazole-5-carboxamide]
≤ 1000 nM | C[C@H](NC(=O)c1cc(C(F)F)nn1C)c1nc(-c2ccnc(C3CCC3)c2)no1 [Compound 8, (S)—N-(1-(3-(2-cyclobutylpyridin-4-yl)-1,2,4-oxadiazol-5-yl)ethyl)-3-(difluoromethyl)-1-methyl-1H-pyrazole-5-carboxamide]
